Measured values taken from patent US12600726B2, “Antagonists of the muscarinic acetylcholine receptor M4” (Vanderbilt University, priority 2017, dated 2026).
Values belong to the molecule of their own block, whether it stands above or below them.

Tests used:
Rat M4 = target: T1, Rat M4 (Rattus norvegicus, UniProt P08485); assay: mAChR M4 cell-based functional calcium flux assay (rat M4/Gqi5/CHO cells); details: for Emin (rat M4): % ACh maximum at 30 μM
T1 construct: expressed in transfected cells; host or cells: CHO-K1 (ATCC), stably expressing M4 and Gqi5
T1 sequence (P08485 1-478): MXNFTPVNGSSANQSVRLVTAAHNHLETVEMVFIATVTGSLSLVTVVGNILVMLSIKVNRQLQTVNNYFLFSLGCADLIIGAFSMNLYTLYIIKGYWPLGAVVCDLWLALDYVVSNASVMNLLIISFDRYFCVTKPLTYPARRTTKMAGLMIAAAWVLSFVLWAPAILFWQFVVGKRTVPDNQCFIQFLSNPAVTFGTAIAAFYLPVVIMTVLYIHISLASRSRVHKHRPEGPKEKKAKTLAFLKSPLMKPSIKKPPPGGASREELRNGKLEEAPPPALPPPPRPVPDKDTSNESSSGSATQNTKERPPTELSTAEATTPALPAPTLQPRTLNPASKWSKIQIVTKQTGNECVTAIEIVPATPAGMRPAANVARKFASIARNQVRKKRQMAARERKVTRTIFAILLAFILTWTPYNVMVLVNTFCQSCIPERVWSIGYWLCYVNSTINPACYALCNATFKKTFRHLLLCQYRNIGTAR
Experimental: (§1) Human, rat, or mouse M4. cDNA, along with the chimeric G protein Gqi5, were transfected into Chinese hamster ovary (CHO-K1) cells purchased from the American Type Culture Collection using Lipofectamine2000. M4/Gqi5/CHO cells were grown in Ham's F-12 medium containing 10% heat-inactivated fetal bovine serum (FBS), 20 mM HEPES, 500 μg/mL G418 sulfate, and 200 μg/mL Hygromycin B.
(§2) For high throughput measurement of agonist-evoked increases in intracellular calcium, CHO-K1 cells stably expressing muscarinic receptors were plated in growth medium lacking G418 and hygromycin at 15,000 cells/20 μL/well in Greiner 384-well black-walled, tissue culture (TC)-treated, clear-bottom plates (VWR). Cells were incubated overnight at 37° C. and 5% CO2. The next day, cells were washed using an ELX 405 (BioTek) with assay buffer; the final volume was then aspirated to 20 μL. Next, 20 μL of a 2.3 μM stock of Fluo-4/acetoxymethyl ester (Invitrogen, Carlsbad, CA), prepared as a 2.3 mM stock in DMSO and mixed in a 1:1 ratio with 10% (w/v) Pluronic F-127 and diluted in assay buffer, was added to the wells and the cell plates were incubated for 50 min at 37° C. and 5% CO2. Dye was removed by washing with the ELX 405 and the final volume was aspirated to 20 μL. Compound master plates were formatted in a 10 point concentration-response curve (CRC) format (1:3 dilutions) in 100% DMSO with a starting concentration of 10 or 1 mM using a BRAVO liquid handler (Agilent). Test compound CRCs were then transferred to daughter plates (240 nL) using the Echo acoustic plate reformatter (Labcyte, Sunnyvale, CA) and then diluted into assay buffer (40 μL) to a 2× stock using a Thermo Fisher Combi (Thermo Fisher Scientific, Waltham, MA).
(§3) Calcium flux was measured using the Functional Drug Screening System (FDSS) 6000 or 7000 (Hamamatsu Corporation, Tokyo, Japan) as an increase in the fluorescent static ratio. Compounds were applied to cells (20 μL, 2×) using the automated system of the FDSS at 2 seconds into the protocol and the data were collected at 1 Hz. At 143 s, 10 μL of an EC20 concentration of the muscarinic receptor agonist acetylcholine was added (5×), followed by the addition of 12 μL of an EC80 concentration of acetylcholine at the 268 s time point (5×). Agonist activity was analyzed as a concentration-dependent increase in calcium mobilization upon compound addition. Positive allosteric modulator activity was analyzed as a concentration-dependent increase in the EC20 acetylcholine response. Antagonist activity was analyzed as a concentration-dependent decrease in the EC80 acetylcholine response; for the purposes of the tables herein, an IC50 (inhibitory concentration 50) was calculated as a concentration-dependent decrease of the response elicited by an EC80 concentration of acetylcholine. Concentration-response curves were generated using a four-parameter logistical equation in XLFit curve fitting software (IDBS, Bridgewater, NJ) for Excel (Microsoft, Redmond, WA) or Prism (GraphPad Software, Inc., San Diego, CA) or the Dotmatics software platform (Dotmatics, Bishop's Stortford, UK).
(§4) Compounds were synthesized as described above. Activity (IC50 and Emin) was determined in the mAChR M4 cell-based functional assay as described above and the data are shown in Table 2 and Table 3. The compound number corresponds to the compound numbers used in the examples and Tables 1 and 1.1.

Human M4 = target: T2, Human M4 (Homo sapiens, UniProt P08173); assay: mAChR M4 cell-based functional calcium flux assay (human M4/Gqi5/CHO cells); details: for Emin (human M4): % ACh maximum at 30 μM; for IC50: decrease of the response to an EC80 concentration of acetylcholine
T2 construct: expressed in transfected cells; host or cells: CHO-K1 (ATCC), stably expressing M4 and Gqi5
T2 sequence (P08173 1-479): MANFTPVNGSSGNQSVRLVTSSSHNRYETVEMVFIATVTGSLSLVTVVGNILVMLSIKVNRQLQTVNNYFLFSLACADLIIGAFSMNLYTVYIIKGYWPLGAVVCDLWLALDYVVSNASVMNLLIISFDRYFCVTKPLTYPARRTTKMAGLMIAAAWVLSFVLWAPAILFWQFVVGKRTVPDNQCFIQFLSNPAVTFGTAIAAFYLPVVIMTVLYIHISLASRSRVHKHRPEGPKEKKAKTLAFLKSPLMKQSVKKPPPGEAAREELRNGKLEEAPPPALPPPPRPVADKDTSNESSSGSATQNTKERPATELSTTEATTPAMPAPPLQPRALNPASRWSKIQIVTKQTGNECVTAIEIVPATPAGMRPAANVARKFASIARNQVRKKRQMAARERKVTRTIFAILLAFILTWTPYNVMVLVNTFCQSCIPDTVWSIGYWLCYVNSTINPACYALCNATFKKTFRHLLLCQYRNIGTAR
Experimental: as §1, §2, §3, §4

[1] = cells printed in μM, decrease of the EC80 acetylcholine response
[2] = decrease of the response to an EC80 concentration of acetylcholine

Emin (rat M4) (Rat M4): 3% | IC50 (Rat M4; [2]): 0.288 µM
SMILES: CC(C)(C)CCN1CCC2(CC1)CC2COc1ccc(-c2cc(F)ccc2Cl)nn1 (centres unmarked) [Compound 77, 1-(((6-(2-chloro-5-fluorophenyl)pyridazin-3-yl)oxy)methyl)-6-(3,3-dimethylbutyl)-6-azaspiro[2.5]octane]

Emin (human M4) (Human M4): 10% | IC50 (Human M4): 1200 nM
SMILES: c1cc(N2CCOCC2)nnc1NCC1CC12CCN(CC1CCOCC1)CC2 (centres unmarked) [Compound 85, 6-morpholino-N-[[6-(tetrahydropyran-4-ylmethyl)-6-azaspiro[2.5]octan-2-yl]methyl]pyridazin-3-amine]

Emin (human M4) (Human M4): 9% | IC50 (Human M4): 4.61 nM
SMILES: Cc1nn(C)cc1-c1nnc(NCC2CC23CCN(CC2CCOCC2)CC3)c2ccccc12 (centres unmarked) [Compound 93, 4-(1,3-dimethylpyrazol-4-yl)-N-[[6-(tetrahydropyran-4-ylmethyl)-6-azaspiro[2.5]octan-2-yl]methyl]phthalazin-1-amine]

Emin (human M4) (Human M4): 5% | IC50 (Human M4): 524 nM
SMILES: N#Cc1ccccc1CN1CCC2(CC1)CC2CNc1ccc(-c2cc(F)ccc2Cl)nn1 (centres unmarked) [Compound 98, 2-[[2-[[[6-(2-chloro-5-fluoro-phenyl)pyridazin-3-yl]amino]methyl]-6-azaspiro[2.5]octan-6-yl]methyl]benzonitrile]

Emin (human M4) (Human M4): 2% | IC50 (Human M4): 88.2 nM
SMILES: Fc1ccc(Cl)c(-c2ccc(NCC3CC34CCN(Cc3ccccc3F)CC4)nn2)c1 (centres unmarked) [Compound 100, 6-(2-chloro-5-fluoro-phenyl)-N-[[6-[(2-fluorophenyl)methyl]-6-azaspiro[2.5]octan-2-yl]methyl]pyridazin-3-amine]

Emin (human M4) (Human M4): 2% | IC50 (Human M4): 127 nM
SMILES: Fc1ccc(Cl)c(-c2ccc(NC[C@@H]3CC34CCN(Cc3ccccc3)CC4)nn2)c1 [Compound 112, N-[[(2R)-6-benzyl-6-azaspiro[2.5]octan-2-yl]methyl]-6-(2-chloro-5-fluoro-phenyl)pyridazin-3-amine]

Emin (human M4) (Human M4): 2% | IC50 (Human M4): 88.3 nM
SMILES: Fc1ccc(Cl)c(-c2ccc(NC[C@@H]3CC34CCN(Cc3ccccn3)CC4)nn2)c1 [Compound 113, 6-(2-chloro-5-fluoro-phenyl)-N-[[(2R)-6-(2-pyridylmethyl)-6-azaspiro[2.5]octan-2-yl]methyl]pyridazin-3-amine]

Continued, molecule first:

SMILES: Cc1cnn(C)c1-c1ccc(NCC2CC23CCN(CCC2CCCO2)CC3)nn1 (centres unmarked) [Compound 4, 6-(1,4-dimethyl-1H-pyrazol-5-yl)-N-((6-(2-(tetrahydrofuran-2-yl)ethyl)-6-azaspiro[2.5]octan-1-yl)methyl)pyridazin-3-amine]
Emin (rat M4) (Rat M4): 26.5% | IC50 (Rat M4; [1]): > 10 µM

SMILES: Cc1nn(C)cc1-c1ccc(NCC2CC23CCN(CC2CC4C=CC2C4)CC3)nn1 (centres unmarked) [Compound 9, N-[[6-(5-bicyclo[2.2.1]hept-2-enylmethyl)-6-azaspiro[2.5]octan-2-yl]methyl]-6-(1,3-dimethylpyrazol-4-yl)pyridazin-3-amine]
Emin (rat M4) (Rat M4): 3.98% | IC50 (Rat M4; [2]): 0.012 µM

SMILES: Cc1nn(C)cc1-c1ccc(NCC2CC23CCN(CC(C)C(C)(C)C)CC3)nn1 (centres unmarked) [Compound 10, 6-(1,3-dimethylpyrazol-4-yl)-N-[[6-(2,3,3-trimethylbutyl)-6-azaspiro[2.5]octan-2-yl]methyl]pyridazin-3-amine]
Emin (rat M4) (Rat M4): 3.57% | IC50 (Rat M4; [2]): 0.0478 µM

SMILES: Cc1cnn(C)c1-c1ccc(NCC2CC23CCN(CC2CCOCC2)CC3)nn1 (centres unmarked) [Compound 74, 6-(2,4-dimethylpyrazol-3-yl)-N-[[6-(tetrahydropyran-4-ylmethyl)-6-azaspiro[2.5]octan-2-yl]methyl]pyridazin-3-amine]
Emin (rat M4) (Rat M4): 29.9% | IC50 (Rat M4; [1]): > 10 µM

SMILES: Fc1ccc(Cl)c(-c2ccc(OCC3CC34CCN(CC3CCCCC3)CC4)nn2)c1 (centres unmarked) [Compound 87, 2-[[6-(2-chloro-5-fluoro-phenyl)pyridazin-3-yl]oxymethyl]-6-(cyclohexylmethyl)-6-azaspiro[2.5]octane]
Emin (rat M4) (Rat M4): 3% | IC50 (Rat M4; [2]): 1.05 µM

SMILES: Cc1nn(C)cc1-c1nnc(NCC2CC23CCN(CC2CCCCC2)CC3)c2ccccc12 (centres unmarked) [Compound 94, N-[[6-(cyclohexylmethyl)-6-azaspiro[2.5]octan-2-yl]methyl]-4-(1,3-dimethylpyrazol-4-yl)phthalazin-1-amine]
Emin (human M4) (Human M4): 5% | IC50 (Human M4): 16.1 nM

SMILES: Cc1nn(C)cc1-c1nnc(NCC2CC23CCN(CCC(C)(C)C)CC3)c2ccccc12 (centres unmarked) [Compound 95, N-[[6-(3,3-dimethylbutyl)-6-azaspiro[2.5]octan-2-yl]methyl]-4-(1,3-dimethylpyrazol-4-yl)phthalazin-1-amine]
Emin (human M4) (Human M4): 5% | IC50 (Human M4): 2.55 nM

SMILES: Cc1nn(C)cc1-c1nnc(NCC2CC23CCN(CC2CC4C=CC2C4)CC3)c2ccccc12 (centres unmarked) [Compound 96, N-[[6-(5-bicyclo[2.2.1]hept-2-enylmethyl)-6-azaspiro[2.5]octan-2-yl]methyl]-4-(1,3-dimethylpyrazol-4-yl)phthalazin-1-amine]
Emin (human M4) (Human M4): 5% | IC50 (Human M4): 2.96 nM

SMILES: Fc1cccc(CN2CCC3(CC2)CC3CNc2ccc(-c3cc(F)ccc3Cl)nn2)c1 (centres unmarked) [Compound 97, 6-(2-chloro-5-fluoro-phenyl)-N-[[6-[(3-fluorophenyl)methyl]-6-azaspiro[2.5]octan-2-yl]methyl]pyridazin-3-amine]
Emin (human M4) (Human M4): 3% | IC50 (Human M4): 83.3 nM

SMILES: Fc1ccc(CN2CCC3(CC2)CC3CNc2ccc(-c3cc(F)ccc3Cl)nn2)cc1 (centres unmarked) [Compound 99, 6-(2-chloro-5-fluoro-phenyl)-N-[[6-[(4-fluorophenyl)methyl]-6-azaspiro[2.5]octan-2-yl]methyl]pyridazin-3-amine]
Emin (human M4) (Human M4): 3% | IC50 (Human M4): 88.2 nM

SMILES: Fc1ccc(Cl)c(-c2ccc(NCC3CC34CCN(Cc3ccccc3)CC4)nn2)c1 (centres unmarked) [Compound 101, N-[(6-benzyl-6-azaspiro[2.5]octan-2-yl)methyl]-6-(2-chloro-5-fluoro-phenyl)pyridazin-3-amine]
Emin (human M4) (Human M4): 3% | IC50 (Human M4): 69.2 nM

SMILES: CC(=O)Nc1ccc(-c2ccc(NC[C@H]3CC34CCN(CC3CCCCC3)CC4)nn2)cc1 [Compound 125, N-[4-[6-[[(2S)-6-(cyclohexylmethyl)-6-azaspiro[2.5]octan-2-yl]methylamino]pyridazin-3-yl]phenyl]acetamide]
Emin (human M4) (Human M4): 4% | IC50 (Human M4): 112 nM
